Data: BindingDB's records for PubMed 7915318 (Ohio State University, 1994)
pKi: −log10 of the molar value. “And” between values parts separate entries of the source, which are not always exact repeats. Equal values may be shown once.

What was measured:
[1] = target: Beta-2 adrenergic receptor (Homo sapiens, UniProt P07550)
[2] = target: Beta-1 adrenergic receptor (Homo sapiens, UniProt P08588)
[3] = target: Beta-1 adrenergic receptor (Cavia porcellus, UniProt B0FL73)
[4] = target: Beta-2 adrenergic receptor (Cavia porcellus, UniProt Q8K4Z4)
Sequence of Beta-2 adrenergic receptor (Cavia porcellus, UniProt Q8K4Z4) (Q8K4Z4 whole entry): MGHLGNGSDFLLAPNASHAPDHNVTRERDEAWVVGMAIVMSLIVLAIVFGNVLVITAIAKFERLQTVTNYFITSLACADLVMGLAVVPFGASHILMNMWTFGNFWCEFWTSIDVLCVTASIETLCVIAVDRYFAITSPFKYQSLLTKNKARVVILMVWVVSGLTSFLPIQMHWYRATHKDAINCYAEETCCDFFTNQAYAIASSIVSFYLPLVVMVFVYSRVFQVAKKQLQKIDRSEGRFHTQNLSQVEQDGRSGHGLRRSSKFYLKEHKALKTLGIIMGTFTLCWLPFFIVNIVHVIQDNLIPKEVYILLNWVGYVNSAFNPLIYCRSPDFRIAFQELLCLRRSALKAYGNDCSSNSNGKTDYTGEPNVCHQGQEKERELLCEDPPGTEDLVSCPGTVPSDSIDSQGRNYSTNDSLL

Sequence of Beta-2 adrenergic receptor (Homo sapiens, UniProt P07550) (P07550 whole entry): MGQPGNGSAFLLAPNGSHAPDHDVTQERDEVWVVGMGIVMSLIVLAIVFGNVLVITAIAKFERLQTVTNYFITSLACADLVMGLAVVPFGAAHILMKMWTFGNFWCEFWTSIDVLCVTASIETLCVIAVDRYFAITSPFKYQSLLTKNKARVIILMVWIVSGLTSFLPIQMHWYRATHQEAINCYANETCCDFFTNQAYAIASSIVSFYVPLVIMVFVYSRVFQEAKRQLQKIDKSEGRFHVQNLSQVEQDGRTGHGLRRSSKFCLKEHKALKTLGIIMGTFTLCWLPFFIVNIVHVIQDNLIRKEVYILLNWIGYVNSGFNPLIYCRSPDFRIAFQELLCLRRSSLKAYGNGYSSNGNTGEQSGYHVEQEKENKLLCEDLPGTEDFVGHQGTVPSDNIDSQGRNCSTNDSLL
Sequence of Beta-1 adrenergic receptor (Homo sapiens, UniProt P08588) (P08588 whole entry): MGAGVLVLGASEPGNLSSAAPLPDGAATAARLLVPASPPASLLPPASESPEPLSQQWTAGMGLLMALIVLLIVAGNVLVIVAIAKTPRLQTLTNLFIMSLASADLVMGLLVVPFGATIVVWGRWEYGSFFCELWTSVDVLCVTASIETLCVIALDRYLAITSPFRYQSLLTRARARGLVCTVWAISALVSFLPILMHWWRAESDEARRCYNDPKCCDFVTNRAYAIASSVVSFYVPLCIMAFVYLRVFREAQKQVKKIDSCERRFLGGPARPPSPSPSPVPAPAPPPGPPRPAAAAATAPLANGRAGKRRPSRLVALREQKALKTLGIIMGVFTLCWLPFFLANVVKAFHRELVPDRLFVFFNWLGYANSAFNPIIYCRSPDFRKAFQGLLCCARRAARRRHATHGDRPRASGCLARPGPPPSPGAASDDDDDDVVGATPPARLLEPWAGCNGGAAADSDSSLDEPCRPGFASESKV
Sequence of Beta-1 adrenergic receptor (Cavia porcellus, UniProt B0FL73) (B0FL73 whole entry): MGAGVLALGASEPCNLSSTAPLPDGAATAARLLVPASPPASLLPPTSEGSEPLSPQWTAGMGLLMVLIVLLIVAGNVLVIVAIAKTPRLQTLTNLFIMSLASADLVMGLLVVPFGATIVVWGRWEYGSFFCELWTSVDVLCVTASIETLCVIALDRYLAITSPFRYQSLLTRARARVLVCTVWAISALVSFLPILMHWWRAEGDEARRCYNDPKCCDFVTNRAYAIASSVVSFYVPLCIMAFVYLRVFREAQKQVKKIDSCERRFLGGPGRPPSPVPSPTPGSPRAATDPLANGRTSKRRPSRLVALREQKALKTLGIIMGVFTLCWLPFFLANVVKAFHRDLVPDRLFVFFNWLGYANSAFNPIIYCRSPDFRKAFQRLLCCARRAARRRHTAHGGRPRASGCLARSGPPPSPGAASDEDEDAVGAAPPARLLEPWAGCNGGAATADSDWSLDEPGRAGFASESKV

| Compound | pKi [1] | pKi [2] | pKi [3] | pKi [4] |
| --- | --- | --- | --- | --- |
| COc1cc(CC2NCCc3cc(O)c(O)c(F)c32)cc(OC)c1OC (racemic) [NSC_128658] | 8.06 | 7.43 |  |  |
| COc1cc(CC2NCCc3cc(O)c(O)cc32)cc(OC)c1OC (stereo unspecified) [1-(3,4,5-Trimethoxy-benzyl)-1,2,3,4-tetrahydro-isoquinoline-6,7-diol] |  |  |  | 6.98 and 7.64 |
| COc1cc(C[C@@H]2NCCc3cc(O)c(O)cc32)cc(OC)c1OC [CAS_65772] |  |  | 6.96 | 7.56 and 8.01 |
| CC(C)NCC(O)c1ccc(O)c(O)c1 (stereo not drawn) [Isoproterenol,(+)] |  |  |  | 6.49 and 6.97 |
| CC(C)NCC(O)COc1cccc2[nH]ccc12 (stereo unspecified) [LB-46] |  |  | 8.14 | 8.58 and 8.94 |
| COc1c(I)cc(CC2NCCc3cc(O)c(O)cc32)cc1I (stereo unspecified) [TMQ, 3',5'-Diiodo] | 9.24 and 9.13 |  | 7.98 | 8.55 and 9.01 |
| COc1cc(CC2NCCc3cc(O)c(O)cc32)cc(N)c1OC (stereo unspecified) [TMQ, 3'-Amino] | 6.85 | 6.67 | 6.34 | 6.31 and 7.01 |
| COc1cc(CC2NCCc3cc(O)c(O)cc32)cc(I)c1OC (stereo unspecified) [TMQ, 3'-Iodo] | 8.57 and 8.77 | 7.90 | 8.00 | 8.96 and 8.63 |
| COc1cc(CC2NCCc3cc(O)c(O)cc32)cc([N+](=O)[O-])c1OC (stereo unspecified) [TMQ, 3'-Nitro] | 7.33 | 7.83 | 7.50 | 7.96 and 8.56 |
| COc1cc(CC2NCCc3c(F)c(O)c(O)c(F)c32)cc(OC)c1OC (stereo unspecified) [TMQ, 5,8-Difluoro] | 8.06 and 8.21 | 8.13 | 7.46 | 8.18 and 8.37 |
| COc1cc(CC2NCCc3c2cc(O)c(O)c3I)cc(OC)c1OC (stereo unspecified) [TMQ, 5-Iodo] | 7.99 |  | 7.47 | 7.43 and 7.94 |
| COc1cc(CC2NCCc3c2cc(O)c(O)c3C(F)(F)F)cc(OC)c1OC (stereo unspecified) [TMQ, 5-TrifluoroMe] |  |  | 5.96 | 5.93 and 6.04 |
| COc1cc(CC2NCCc3cc(O)c(O)c(I)c32)cc(OC)c1OC (stereo unspecified) [TMQ, 8-Iodo] | 6.12 and 6.36 |  | 6.20 | 6.44 and 6.42 |
| COc1cc(CC2=NCCc3cc(O)c(O)cc32)cc(OC)c1OC [TMQ, Amidine] |  |  |  | < 5.00 |
| COc1cc(CC2NCCc3cc(O)c(O)cc32)cc2c1OS(=O)O2 (stereo unspecified) [TMQ, Cyclic sulfite] |  |  | < 5.00 | 5.46 and 5.71 |
| COc1cc(CC2c3cc(O)c(O)cc3CCN2Cc2cccc(N)c2)cc(OC)c1OC (stereo unspecified) [TMQ, N-amino-benzyl] | 6.03 |  |  | 5.43 and 5.88 |
| COc1cc(CC2c3cc(O)c(O)cc3CCN2Cc2ccccc2)cc(OC)c1OC (stereo unspecified) [TMQ, N-benzyl] |  |  | 5.96 |  |
| COc1cc(C[C@H]2NCCc3cc(O)c(O)cc32)cc(OC)c1OC [TMQ, R-(+)] |  |  | < 5.00 | < 5.00 and 5.03 |

Results, then the compound that gave them:

| pKi [1] | pKi [2] | pKi [3] | pKi [4] | Compound |
| --- | --- | --- | --- | --- |
|  |  | < 5.00 |  | CC(C)(C)NCC(O)c1cc(O)cc(O)c1 (racemic) [Terbutaline,(+/-)] |
|  |  | 5.21 | 5.90 | COc1cc(CC2c3cc(O)c(O)cc3CCN2Cc2cccc(Cl)c2)cc(OC)c1OC (stereo unspecified) [TMQ, N-chloro-benzyl] |
|  |  | 5.45 | 5.73 | COc1cc(CC2c3cc(O)c(O)cc3CCN2Cc2ccc(Cl)c(Cl)c2)cc(OC)c1OC (stereo unspecified) [TMQ, N-dichlorobenzyl] |
|  |  | 5.27 | 5.56 | COc1cc(CC2c3cc(O)c(O)cc3CCN2CCO)cc(OC)c1OC (stereo unspecified) [TMQ, N-hydroxyethyl] |
|  |  |  | 6.07 | COc1cc(CC2c3cc(O)c(O)cc3CCN2C)cc(OC)c1OC (stereo unspecified) [TMQ, N-methyl] |
|  |  |  | 5.79 and 5.83 | COc1cc(CC2c3cc(O)c(O)cc3CCN2Cc2cccc([N+](=O)[O-])c2)cc(OC)c1OC (stereo unspecified) [TMQ, N-nitro-benzyl] |
| 6.36 | 6.38 |  |  | COc1cc(C[C@H]2NCCc3cc(O)c(O)c(F)c32)cc(OC)c1OC [TMQ, R-(-)-8-Fluoro] |
| 7.99 | 7.17 |  |  | COc1cc(C[C@@H]2NCCc3cc(O)c(O)c(F)c32)cc(OC)c1OC [TMQ, S-(+)-8-Fluoro] |
